Series [1] is described as follows: Solubility evaluation in organic solvents. Type of series: physicochemical. The following applies: room temperature; for solubility: organic solvent or mixture. How it is done:
Solubility of the compound was evaluated. As a result, under room temperature, the compound was dissolved into chloroform at 381 g/L (20.5 wt. %), and into toluene at 137 g/L (13.6 wt. %). The compound is clearly found to show high solubility in any of solvent to allow use in an application process.
Solubility of the compound was evaluated. As a result, under room temperature, the compound was dissolved into chloroform at 43 g/L (2.8 wt. %), and into toluene at 23 g/L (2.6 wt. %). The compound is clearly found to show high solubility in any of solvent to allow use in an application process.

Series [2] can be described thus: Evaluation of chemical stability by UV-Vis spectrum. The format is physicochemical. How it is done:
Then, 0.6951 mg of the compound synthesized in Example 3 was weighed, and dissolved into degassed benzonitrile (25 mL) using a measuring flask in a glove box (solution concentration: 4.92×10^−5 M). A prepared solution thereof was put into a UV cell with a cover, and a UV-Vis spectrum (device used: Jasco V-570 Spectrometer, made by JASCO Corporation) was immediately measured. Subsequently, opening and closing of the cover were repeated several times under atmospheric air to bring the solution into contact with oxygen in air.
Moreover, a film having a thickness of 100 nanometers formed by performing vacuum deposition of the compound synthesized in Example 3 was allowed to stand for one week in atmospheric air. The results obtained by measuring UV-Vis spectra (device used: Jasco V-570 Spectrometer, made by JASCO Corporation) over time during the period are shown in FIG. 6.

[3] abbreviates: chloroform, read-out: Solubility in chloroform.
The mark [4] stands for this setting: toluene, read-out: Solubility in toluene.

≈ marks a conversion by molar mass, not a printed value. Like-named read-outs stand apart in the source and are kept apart here.

Regarding `c1ccc2cc3c(cc2c1)sc1cc2ccccc2cc13` [Comparative Example 1, dinaphtho[2,3-b:2′,3′-d]thiophene], the melting point fell in the range of 282 to 283 °C.
Same read-out and setting: in the case of `CCCCCCCCc1ccc2cc3c(cc2c1)sc1cc2cc(CCCCCCCC)ccc2cc13` [Example 8, 3,9-dioctyldinaphtho[2,3-b:2′,3′-d]thiophene] it was 193.7 to 194.8 °C.
`c1ccc(-c2cc3oc4cc(-c5ccccc5)c5ccccc5c4c3c3ccccc23)cc1` [Example 20, 5,9-diphenyldinaphtho[2,1-b:1′,2′-d]furan]: the solubility in series [1] (setting [3]) is 43 mg/mL (≈ 102 mM); in series [1] (setting [4]) it was 23 mg/mL (≈ 54.7 mM). Besides, the Solubility in chloroform in series [1] (chloroform) is on record as 2.8 wt. %. Moreover, the Solubility in toluene in series [1] (toluene) was determined as 2.6 wt. %.
In the case of `CCCCCCCCCCc1ccc2cc3c(cc2c1)sc1cc2cc(CCCCCCCCCC)ccc2cc13` [Example 6, 3,9-didecyldinaphtho[2,3-b:2′,3′-d]thiophene], the melting point was in the range of 182 to 183 °C.
Turning to `CCCCCCCCCCc1ccc2cc3oc4cc5ccc(CCCCCCCCCC)cc5cc4c3cc2c1` [Example 1, 2,10-didecyldinaphtho[2,3-b:2′,3′-d]furan], the melting point lay within 175 to 176 °C.
On to `CCCCCCCCCCc1ccc2cc3sc4cc5ccc(CCCCCCCCCC)cc5cc4c3cc2c1` [Example 2, 2,10-didecyldinaphtho[2,3-b:2′,3′-d]thiophene], for which the melting point is 122 to 123 °C.
On to `CCCCCCCCc1cc2oc3cc(CCCCCCCC)c4ccccc4c3c2c2ccccc12` [Example 18, 5,9-dioctyldinaphtho[2,1-b:1′,2′-d]furan], for which the solubility in series [1] (setting [3]) was 381 mg/mL (≈ 773 mM); in series [1] (setting [4]), 137 mg/mL (≈ 278 mM). The Solubility in chloroform in series [1] (chloroform) is 20.5 wt. %. In series [1] (toluene), the Solubility in toluene is reported as 13.6 wt. %.
Molecule `CCCCCCc1ccc2cc3c(cc2c1)sc1cc2cc(CCCCCC)ccc2cc13` [Example 7, 3,9-dihexyldinaphtho[2,3-b:2′,3′-d]thiophene] yielded a melting point of 202 to 202.4 °C.
`CCCCCCc1ccc2cc3c(cc2c1)oc1cc2cc(CCCCCC)ccc2cc13` [Example 5, 3,9-dihexyldinaphtho[2,3-b:2′,3′-d]furan] came in with a melting point of 198.7 to 199.1 °C.
For the molecule `CCCCCCCCCCc1ccc2cc3c(cc2c1)oc1cc2cc(CCCCCCCCCC)ccc2cc13` [Example 3, 3,9-didecyldinaphtho[2,3-b:2′,3′-d]furan], the melting point lay in the range of 216 to 217 °C. For the same molecule, the “Change of UV-Vis spectrum of solution” value in series [2] (benzonitrile solution 4.92×10^−5 M, contact with oxygen in air, 3, 24 and 72 hours) was “no change of the spectrum was observed”. Further, in series [2] (solution and film in air), the “Chemical stability (conclusion)” value is “chemically stable”. Besides, the “Change of UV-Vis spectrum of film” value in series [2] (vacuum-deposited film 100 nanometers, one week in atmospheric air) is “no change of the spectrum was observed”.

Source of the values: patent US9537110B2, “Chalcogen-containing organic compound and use thereof” (JNC CORPORATION, priority 2012, dated 2017).
